This note sets out measurements from patent US12384775B2, “Pyrimid-2-yl-pyrazole compounds as IRAK inhibitors” (Rigel Pharmaceuticals, Inc., priority 2022, dated 2025).

The subject of experiment [1] is TLR2-induced TNF-α production in human primary dendritic cells (DC). Nature of the experiment: TLR2-induced TNF-α in human primary dendritic cells. Type of experiment: cell-based.
In experiment [2] the test system is TLR4-induced TNF-α production by human THP-1 cells. Nature of the experiment: TLR4-induced TNF-α in THP-1 cells. The format is cell-based. As for the experimental part:
THP-1 cells (100K in 100 μL/well) were primed with 25 ng/mL IFN-γ for 18 hours at 37° C., 5% CO2. Compound was serially diluted in DMSO from 2.5 mM in 4-fold dilutions, and then diluted 1:125 in RPMI 1640 complete media with 10% FBS. 100 μL/well 2× compound was mixed with the 100 μL/well IFN-7 primed THP-1 in 96 well flat-bottom white tissue culture plates. The cells were pre-incubated with compound for 1 hour at 37° C., 5% CO2 and before addition of 10 μL/well 21×LPS to give a final concentration of […] for LPS. The cells were stimulated with LPS for 18 hours at 37° C., 5% CO2. After centrifugation, 100 μL/well supernatant was extracted by using a multichannel pipette. IL-23p19 or TNF-α protein in the supernatant were measured by sandwich ELISA. The remaining IFN-7 primed THP-1 cell pellets were used to perform cell viability assays to determine compound cell toxicity. The plates were read with a luminometer, and the chemiluminescence values were entered into Athena (Rigel) for curve fitting, EC50 calculation, and database storage.

Experiment [3] concerns the target IRAK1 (Homo sapiens, UniProt P51617). Briefly: IRAK1 ADP-Glo kinase assay. Type of experiment: biochemical. Particulars: read-out: IRAK1 ADP-Glo Kinase, 8 pt EC50. A general note: In ADP-Glo the light output rises with the ADP produced.
Experiment [4] deals with IL-10-induced production of the cytokine IL-6 in primary human endothelial cells. Nature of the experiment: IL-6 production in primary human endothelial cells. The format is cell-based.
In experiment [5] the test system is TLR4-dependent cytokine production in mouse macrophages. Nature of the experiment: TLR4-dependent cytokine production in mouse macrophages. Type of experiment: cell-based.
Experiment [6] has as its system TLR4-induced IL-23 production in human primary dendritic cells (DC). Briefly: IL23-p19 ELISA, dendritic cells (DC), LPS. The format is cell-based. To be noted: Dendritic cell; dendritic cells from human PBMC, IFNγ primed, LPS 1 μg/ml, 18 h; read-out: IL23-p19 ELISA, Dendritic, LPS, 10 pt EC50. On the procedure: Human PBMC cells (400 million) obtained from the vendor were transferred into a T-175 flask containing 15 ml RPMI media (10% FBS) and incubate for 2 hours at 37° C. After 2 hours, the media including floating cells was aspirated out carefully and 12 ml of fresh RPMI media (10% FBS) containing GMCSF (100 ng/ml) and IL4 (20 ng/ml) was added, and the flask was kept in a 37° C. incubator for 7 days.
After 3 days, fresh GMCSF (100 ng/ml) and IL4 (20 ng/ml) were added to the flask and the incubation continued. After 7 days, the fully differentiated cells were harvested by spinning down (1200 rpm/5 min) and aspirating the media. […]
155 μl of the supernatant was harvested from each well carefully (without the tip touching the bottom of the well) and to the remaining 50 μl/well of the cell culture plate was added 50 μl of Cell Titer Glo reagent. The mixture was incubated for 1-2 minutes on a shaker and the plate was read for luminescence intensity to determine the compound cytotoxicity. […]
After 45 minutes, the plates were washed with TBST 4× and 100 ul/well Super Signal ELISA Pico Chemiluminescent Substrate from Pierce (3.5 ml A+3.5 ml B+3.5 ml MQ water) was added. The plates were shaken for 1-2 minutes then read on a plate reader. […]
Background: In an ELISA, binding on a coated surface is turned into a signal by an enzyme label.

pEC50: −log10 of the molar value.

Broadly, the pEC50 is −log10 of the EC50, conventionally taken in molar units.

IRAK1, sequence (P51617 whole entry): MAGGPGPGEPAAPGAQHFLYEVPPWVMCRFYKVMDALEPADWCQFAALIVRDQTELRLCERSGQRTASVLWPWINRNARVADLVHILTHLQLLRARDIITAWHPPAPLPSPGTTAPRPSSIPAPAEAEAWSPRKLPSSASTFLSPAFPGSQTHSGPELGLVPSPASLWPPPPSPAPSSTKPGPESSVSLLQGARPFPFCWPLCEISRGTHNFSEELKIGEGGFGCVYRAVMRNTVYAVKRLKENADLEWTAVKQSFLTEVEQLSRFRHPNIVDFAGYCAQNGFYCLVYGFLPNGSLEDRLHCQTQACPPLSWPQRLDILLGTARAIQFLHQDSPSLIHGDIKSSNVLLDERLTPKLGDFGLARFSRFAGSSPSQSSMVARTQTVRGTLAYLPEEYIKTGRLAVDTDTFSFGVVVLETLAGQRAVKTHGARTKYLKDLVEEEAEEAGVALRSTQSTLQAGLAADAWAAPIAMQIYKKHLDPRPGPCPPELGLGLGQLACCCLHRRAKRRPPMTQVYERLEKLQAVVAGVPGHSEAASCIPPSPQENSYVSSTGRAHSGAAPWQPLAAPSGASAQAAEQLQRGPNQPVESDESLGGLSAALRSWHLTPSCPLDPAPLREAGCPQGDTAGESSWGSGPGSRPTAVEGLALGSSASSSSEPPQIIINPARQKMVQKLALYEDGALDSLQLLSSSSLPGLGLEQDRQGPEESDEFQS

On to `CCO[C@H]1CC[C@H](n2cc(NC(=O)c3csc(-c4cn[nH]c4)n3)c(-c3ncccn3)n2)CC1` [Compound I-1, N-(1-((1r,4r)-4-ethoxycyclohexyl)-3-(pyrimidin-2-yl)-1H-pyrazol-4-yl)-2-(1H-pyrazol-4-yl)thiazole-4-carboxamide], for which the “TLR2-induced TNF-α production in human primary dendritic cells (DC)” value in experiment [1] is on record as “blocks”. For the same compound, the “TLR4-induced TNF-α production by human THP-1 cells” value in experiment [2] was “inhibits”. Moreover, the negative logarithm of the EC50 (pEC50) was 8.09 in experiment [3] and 6.74 in experiment [6]. Moreover, the “IL-10-induced production of the cytokine IL-6 in primary human endothelial cells” value in experiment [4] is listed as “potently inhibits”. Moreover, the “TLR4-dependent cytokine production in mouse macrophages” value in experiment [5] is on record as “potent inhibitor”.
